Consider three molecules from patent publication US9193673B2, “Derivatives of mesalazine, process of their preparation and their use in the treatment of intestinal inflammatory diseases” (SOFAR SPA, priority 2010, dated 2015).

Molecules are shown by their SMILES.

Data set [1] is described as follows: Stability in simulated gastric and simulated intestinal fluids. Type of data set: physicochemical. On the procedure:
Such study is conducted with the aim of evaluating the stability of the compound (IV) at […] in absence of enzymes of the intestinal bacterial flora.
(§1) The stability of the compound (IV) is compared to that of known reference standards.

Data set [2] is described as follows: Hydrolysis in rat intestine preserved in different conditions. Type of data set: in vitro ADME. On the procedure:
Such study is conducted with the aim of surveying the stability of the compound (IV) in rat intestine homogenate preserved in different conditions: frozen at […] and at −80° C.
as §1

A short description of data set [3]: Stability in murine intestinal homogenate. To be noted: rat intestinal homogenate, reference standard (concentration not given). Type of data set: in vitro ADME, rat. On the procedure:
Such study is conducted with the aim of evaluating the stability of the compound (IV) in intestinal homogenate.
as §1

The subject of data set [4] is Caco2 cellular line. Put plainly: Permeability on the Caco2 cellular line. Type of data set: in vitro ADME. The note with it: A→B, Caco2. The protocol:
(§2) Such study is conducted with the aim of evaluating the capacity of the molecule to permeate the intestinal epithelium and be absorbed thereby evaluating the Papp (apparent permeability coefficient). The Papp of the compound (IV) is compared to that of the known reference standards.
(In general: Caco-2 monolayers are a common model of the intestinal barrier.)

Data set [5] can be described thus: Permeability on the Caco2 cellular line. Type of data set: in vitro ADME. The note with it: human, Caco-2; Apical (pH 6.5) → Basolateral (pH 7.4), Caco2; read-out: Papp A→B (nm/sec) Mean ± SD. On the procedure: as §2

Consider `O=C(O)CCCc1ccc(N(CCCl)CCCl)cc1` [Chlorambucil, reference compound], for which the “% Residue” value was 92.8 ± 2.1% in data set [1] (SGF, 30 min incubation); 89.8 ± 1.5% in data set [1] (SGF, 60 min incubation); 42.1 ± 0.5% in data set [1] (SIF, 30 min incubation); 13.9 ± 0.3% in data set [1] (SIF, 60 min incubation). Further, the “Stability in rat intestine (residue %)” value in data set [2] (fresh homogenate, 15 min) stood at 75.2 ± 3.8%; in data set [2] (fresh homogenate, 30 min), 58.7 ± 2.3%; in data set [2] (fresh homogenate, 60 min) it was 28.0 ± 1.5%; in data set [2] (homogenate 4° C., 15 min) it was 76.5 ± 5.0%; in data set [2] (homogenate 4° C., 30 min), 53.0 ± 13.9%; in data set [2] (homogenate 4° C., 60 min), 25.9 ± 5.3%. In addition, the “Stability in rat intestine (residue %)” value in data set [2] (intestine −80° C., 15 min) worked out at 73.0 ± 1.2%; in data set [2] (intestine −80° C., 30 min), 25.0 ± 6.1%; in data set [2] (intestine −80° C., 60 min), 6.9 ± 1.4%. For the same molecule, the Residue percentage was found to be 49.5 ± 7.8% in data set [3] (30 min), 16.9 ± 2.2% in data set [3] (1 hr), 1.5 ± 0.1% in data set [3] (2 hrs) and 0.20 ± 0.08% in data set [3] (4 hrs).
Regarding `CC[C@H]1OC(=O)[C@H](C)[C@@H](O[C@H]2C[C@@](C)(OC)[C@@H](O)[C@H](C)O2)[C@H](C)[C@@H](O[C@@H]2O[C@H](C)C[C@H](N(C)C)[C@H]2O)[C@](C)(O)C[C@@H](C)C(=O)[C@H](C)[C@@H](O)[C@]1(C)O` [Erythromycin, reference compound], the “% Residue” value in data set [1] (SGF, 30 min incubation) is listed as 0.2 ± 0.1%; in data set [1] (SGF, 60 min incubation) it was 0.1 ± 0.1%; in data set [1] (SIF, 30 min incubation) it was 98.1 ± 1.4%; in data set [1] (SIF, 60 min incubation) it was 100.9 ± 0.4%. The Residue percentage in data set [3] (30 min) is 83.5 ± 3.6%; in data set [3] (1 hr), 84.7 ± 3.6%; in data set [3] (2 hrs), 95.0 ± 11.0%; in data set [3] (4 hrs) it was 97.5 ± 2.8%.
`CC[C@]1(O)C[C@@H]2CN(CCc3c([nH]c4ccccc34)[C@@](C(=O)OC)(c3cc4c(cc3OC)N(C)[C@H]3[C@@](O)(C(=O)OC)[C@H](OC(C)=O)[C@]5(CC)C=CCN6CC[C@]43[C@@H]65)C2)C1` [Vinblastine, reference compound]: the “A→B Mean mass balance %” value in data set [4] was found to be 89%. Also, in data set [5], the Papp A→B came out at 0.41 ± 0.21 ×10⁻⁶ cm/s.
